The source of these data is EP0369079A1, “Pharmaceutical compositions with anti-cancer activity and method for the treatment of cancer” (priority 1988, dated 1990).

Structures can show the parent of a compound that is named as a salt. Where two headings read alike, the source gives them in different places.

A short description of data set [1]: L-ascorbic acid in combination with other aromatic aldehydes or derivatives (synergy check). The conditions noted are these: used in combination with L-ascorbic acid. It is filed as cell-based.
The subject of data set [2] is NHIK 3025 cells. As to the kind of experiment: Rate of protein synthesis ([3H]valine incorporation related to [14C] protein label). It is filed as cell-based, Human. Conditions: Table 6, control 4.5. The procedure: Human cells of the established line NHIK 3025, originating from a cervical carcinoma in situ (Nordbye, K., and Oftebro, R. Exp. Cell Res., 58:458, l969), Oftebro, R., and Nordbye, K., Exp. Cell Res., 58:459-460, 1969) were cultivated in Medium E2a (Puck, T.T. et al., J. Exp. Med., 106: 145-165, 1957) supplemented with 20% human and 10% horse serum (Grand Island Biological Co.). The cells are grown as monolayers in tissue culture flasks. […] The cells were kept in continuous exponential growth by frequent reculturing, i.e. every second and third day.
The rate of protein synthesis was calculated as described in Rønning, ø. W. et al., J. Cell Physiol., 107: 47-57, 1981. Briefly, cellular protein was labelled to saturation during a 2-day preincubation with (¹⁴C)valine of constant specific radioactivity (0.5 Ci/mol) prior to the experiment. This was achieved by using a high concentration of valine so that the dilution of (¹⁴C) valine by intracellular valine and by proteolytically generated valine will be negligible (Rønning, ø. W., et al. Exp. Cell Res. 123:63-72, 1979), thus keeping the specific radioactivity at a constant level. The rate of protein synthesis was calculated from the incorporation of (³H) valine of constant specific activity. The incorporation measurements were related to the total of (¹⁴C) radioacitivty in protein at the beginning of the respective measurement periods and expressed as the percentage per hour (Rønning, ø. W. et al, J. Cell, Physiol. 107:47-57, 1981).
From earlier studies, it is known that determination of protein synthesis inhibition is a useful measure of anti-cancer activity. In the present study we have tested the protein synthesis inhibition as induced by both BASS and Asc alone, and by the two active agents in simultaneous combination. The experiment also included samples treated similarly, but where BASS-d₁ was used instead of BASS.

Data set [3] concerns NHIK 3025 cells. Kind of data set: Cell survival (colony formation) after drug treatment. In kind it is cell-based, Human. The conditions noted are these: for Surviving fraction: 1440 min. The procedure: The cells are grown as monolayers in tissue culture flasks. […] The cells were kept in continuous exponential growth by frequent reculturing, i.e. every second and third day.
For measurment of cell survival, appropriate numbers of cells were seeded in plastic Petri dishes (⌀ = 5 cm). The number of cells seeded into each dish was adjusted such that the number of surviving cells would be approximately 150 per dish. While exponentially growing (asynchronous) cells were trypsinized before seeding, synchronized cells were seeded immediately after selection. […] After the desired time of treatment, the drug-containing medium was removed, and fresh medium was added. The dishes were rinsed once with the same medium as was to be added on addition or removal of drug. After 10 to 12 days at 37°C in a CO₂ incubator, the cells were fixed in ethanol and stained with methylene blue before the colonies were counted.
The cytotoxic effect of BASS and of ascorbic acid (Asc) used either alone or in simultaneous combination was measured on asynchronous, exponentially growing NHIK 3025 cells.

The mark [4] stands for this setting: 1.0 mM BASS or BASS-d1 alone (0 mM Asc), per cent of the total cellular protein per hour.
The mark [5] stands for this setting: 3.2 mM BASS or BASS-d1 alone (0 mM Asc).
[6] abbreviates: Homo sapiens, NHIK3025, 24 h, Table 4, 24 hours, 1.0 mM BASS or BASS-d1 alone (0 mM Asc), read-out: Surviving fraction.

`OC1O[C@@H]2COC(c3ccccc3)O[C@H]2[C@H](O)[C@H]1O` (stereo partly drawn) [4,6-O-benzylidene glucose]: the synergistic effects result in data set [1] was “without observing any synergistic effects”.
In the case of `O=C1O[C@H]([C@@H](O)CO)C(O)=C1O` [Asc, L-ascorbic acid, reference compound], the “rate of protein synthesis” value in data set [2] (1.0 mM Asc alone) is on record as 2.96±0.04 %/h; in data set [2] (3.2 mM Asc alone), 1.5±0.2 %/h. In addition, the viability at 1600 µM turned out to be 91 ± 1% in data set [3] (Homo sapiens, NHIK3025, 4 h, Table 3, 4 hours, 1.6 mM Asc alone, read-out: Surviving fraction); 61 ± 4% in data set [3] (Homo sapiens, NHIK3025, 24 h, Table 1, 24 hours, 1.6 mM Asc alone (0 mM BASS), read-out: Surviving fraction); 54 ± 2% in data set [3] (Homo sapiens, NHIK3025, Table 2 (further experiment, similar to Table 1), 1.6 mM Asc alone, read-out: Surviving fraction). Besides, the viability at 3200 µM in data set [3] (Homo sapiens, NHIK3025, 4 h, Table 3, 4 hours, 3.2 mM Asc alone, read-out: Surviving fraction) is 27 ± 3%; in data set [3] (Homo sapiens, NHIK3025, 24 h, Table 1, 24 hours, 3.2 mM Asc alone (0 mM BASS), read-out: Surviving fraction) it was 11 ± 0.8%; in data set [3] (Homo sapiens, NHIK3025, Table 2 (further experiment, similar to Table 1), 3.2 mM Asc alone, read-out: Surviving fraction), 8.7 ± 1%. The viability at 800 µM amounted to 91 ± 9% in data set [3] (Homo sapiens, NHIK3025, 24 h, Table 1, 24 hours, 0.8 mM Asc alone (0 mM BASS), read-out: Surviving fraction) and 95 ± 5% in data set [3] (Homo sapiens, NHIK3025, Table 2 (further experiment, similar to Table 1), 0.8 mM Asc alone, read-out: Surviving fraction). The viability at 1200 µM was 80% in data set [3] (Homo sapiens, NHIK3025, 24 h, Table 1, 24 hours, 1.2 mM Asc alone (0 mM BASS), read-out: Surviving fraction) and 69 ± 2% in data set [3] (Homo sapiens, NHIK3025, Table 2 (further experiment, similar to Table 1), 1.2 mM Asc alone, read-out: Surviving fraction). Besides, the viability at 2400 µM in data set [3] (Homo sapiens, NHIK3025, 24 h, Table 1, 24 hours, 2.4 mM Asc alone (0 mM BASS), read-out: Surviving fraction) is 40 ± 3%; in data set [3] (Homo sapiens, NHIK3025, Table 2 (further experiment, similar to Table 1), 2.4 mM Asc alone, read-out: Surviving fraction), 29 ± 1%. Moreover, the Surviving fraction in data set [3] (Table 1, 24 hours, 1.2 mM Asc alone (0 mM BASS), 1200 µM) came out at 0.80±0.09.
Consider `O=C1O[C@H]([C@@H]2COC(c3ccccc3)O2)C(O)=C1O` (stereo partly drawn) [BASS, sodium salt of 5,6-O-benzylidene-L-ascorbic acid], for which the “rate of protein synthesis” value in data set [2] (setting [4]) stood at 3.06±0.02 %/h; in data set [2] (setting [5]), 1.71±0.05 %/h. Further, the viability at 1600 µM in data set [3] (Homo sapiens, NHIK3025, 4 h, Table 3, 4 hours, 1.6 mM BASS alone, read-out: Surviving fraction) turned out to be 80 ± 5%; in data set [3] (Homo sapiens, NHIK3025, 24 h, Table 1, 24 hours, 1.6 mM BASS alone (0 mM Asc), read-out: Surviving fraction), 52 ± 2%; in data set [3] (Homo sapiens, NHIK3025, 24 h, read-out: Surviving fraction), 24 ± 3%; in data set [3] (Homo sapiens, NHIK3025, Table 2 (further experiment, similar to Table 1), 1.6 mM BASS alone, read-out: Surviving fraction), 44 ± 3%. Also, the viability at 3200 µM in data set [3] (Homo sapiens, NHIK3025, 4 h, Table 3, 4 hours, 3.2 mM BASS alone, read-out: Surviving fraction) turned out to be 36 ± 3%; in data set [3] (Homo sapiens, NHIK3025, 24 h, Table 1, 24 hours, 3.2 mM BASS alone (0 mM Asc), read-out: Surviving fraction), 1.1 ± 0.1%; in data set [3] (Homo sapiens, NHIK3025, Table 2 (further experiment, similar to Table 1), 3.2 mM BASS alone, read-out: Surviving fraction), 3.9 ± 0.4%. For the same compound, the viability at 1000 µM in data set [3] (Homo sapiens, NHIK3025, 24 h, Table 1, 24 hours, 1.0 mM BASS alone (0 mM Asc), read-out: Surviving fraction) was 76%; in data set [3] (setting [6]), 62 ± 5%; in data set [3] (Homo sapiens, NHIK3025, Table 2 (further experiment, similar to Table 1), 1.0 mM BASS alone, read-out: Surviving fraction) it was 63 ± 8%. In addition, the viability at 500 µM in data set [3] (Homo sapiens, NHIK3025, Table 2 (further experiment, similar to Table 1), 0.5 mM BASS alone, read-out: Surviving fraction) stood at 91 ± 7%. Moreover, in data set [3] (Table 1, 24 hours, 1.0 mM BASS alone (0 mM Asc), 1000 µM), the Surviving fraction is on record as 0.76±0.02.
Turning to `[2H]C1(c2ccccc2)OC[C@@H]([C@H]2OC(=O)C(O)=C2O)O1` (stereo partly drawn) [BASS-d₁, sodium salt of 5,6-O-benzylidene-L-ascorbic acid deuterated at the 1-position of the aldehyde group of the benzylidene moiety], the “rate of protein synthesis” value in data set [2] (setting [4]) turned out to be 3.03±0.16 %/h; in data set [2] (setting [5]) it was 2.00±0.03 %/h. Further, the viability at 1000 µM in data set [3] (setting [6]) worked out at 55 ± 5%.
